Assay results from patent US12612406B2, “Cytisine salts” (Achieve Pharma UK Limited, priority 2017, dated 2026).

Legend:
[1] = Screening of cytisine salt formation with acid salt formers; assay type: physicochemical; details: equimolar acid, 40° C. one hour, cooled to ambient
Description: Stock solutions of acid salt formers were prepared in the carrier solvents and having the molarities detailed in the following Table 1 below:
Stock solutions of cytisine API (non-synthetic) were also prepared in CH3CN and in Me-THF. 2.4 g of cytisine was dissolved in 60 ml of 2-Me-THF heated to a temperature of 60° C. 2.4 g of cytisine was dissolved in 24 ml of CH3CN heated to a temperature of 40° C.
200 ml capacity tubes heated to 40° C. were charged with 2 ml or 5 ml of the cytisine stock solution. The acid stock solutions were then added to the heated tubes in equimolar amounts. The solutions were held at 40° C. for one hour and then allowed to cool to ambient temperature (˜18° C.) for 18 hours.
Filtration of the obtained solids was then carried out using a PTFE fritted column and the obtained solids were dried at 50° C. for 48 hours. The properties of the obtained products were then analysed, and the outcome of this screen and the properties of the obtained products are summarised in Table 2 below: […]

[2] = Lactose compatibility: stability of cytisine and cytisine salts with lactose on storage, cytisine by HPLC; assay type: physicochemical; details: 25° C./60% RH and 40° C./75% RH, 7 and 14 days
Description: The stability of formulations of cytisine and the present cytisine salts with lactose was investigated. Samples were stored at 25° C. and 60% relative humidity (RH) and at 40° C. and 75% RH and evaluated after 7 and 14 days. […] Thus, these salts effectively improve the stability of cytisine and facilitates its formulation with compositions comprising lactose.

Ascorbate
Assessment (salt preparation) ([1]; API stock solution in 2-MeTHF): Secondary precipitations, unstable salt
Assessment (salt preparation) ([1]; API stock solution in CH3CN): Secondary precipitations, unstable salt

CC(=O)O [Acetate]
Assessment (salt preparation) ([1]; API stock solution in 2-MeTHF): Secondary precipitations, unstable salt
Assessment (salt preparation) ([1]; API stock solution in CH3CN): Secondary precipitations, unstable salt

CS(=O)(=O)O.O=c1cccc2n1C[C@@H]1CNC[C@H]2C1 [Mesylate, Cytisine Mesylate]
Assessment (salt preparation) ([1]; API stock solution in 2-MeTHF): Excellent salt profile
Assessment (salt preparation) ([1]; API stock solution in CH3CN): Excellent salt profile
Degradation rate of cytisine compared with free base form [2]: degraded at a substantially lower rate

O=C(O)c1cc(O)ccc1O.O=c1cccc2n1C[C@@H]1CNC[C@H]2C1 [Gentisate, Cytisine Gentisate]
Assessment (salt preparation) ([1]; API stock solution in 2-MeTHF): Excellent salt profile
Assessment (salt preparation) ([1]; API stock solution in CH3CN): Excellent salt profile
Degradation rate of cytisine compared with free base form [2]: degraded at a substantially lower rate

O=C(O)C=CC(=O)O.O=c1cccc2n1CC1CNCC2C1 (stereo not shown) [Maleate, Cytisine Maleate]
Assessment (salt preparation) ([1]; API stock solution in 2-MeTHF): Excellent salt profile
Assessment (salt preparation) ([1]; API stock solution in CH3CN): Excellent salt profile

Glucuronate
Assessment (salt preparation) ([1]; API stock solution in 2-MeTHF): Failed to yield solid
Assessment (salt preparation) ([1]; API stock solution in CH3CN): Failed to yield solid

Benzoate
Assessment (salt preparation) ([1]; API stock solution in 2-MeTHF): Failed to yield solid
Assessment (salt preparation) ([1]; API stock solution in CH3CN): Failed to yield solid
